Measured values published in patent publication US11401279B2, “Pyrido[3,2-d]pyrimidine compounds as immunomodulators” (Incyte Corporation, priority 2019, dated 2022).

How the values were obtained:
[1] = In vivo pharmacokinetics in rats; set-up: species or system Sprague Dawley rats; details: rat, cassette dosing; for clearance / half-life / Vd / Cmax / AUC(0-inf): male, Sprague-Dawley, plasma; for clearance / half-life / Vd: 1.0 mg/kg IV; for Vd: read-out: Vss; for Cmax / AUC(0-inf) / F: 3.0 mg/kg PO; for AUC(0-inf): read-out: AUC0-inf
Description: (§1) For in vivo pharmacokinetic experiments, test compounds were administered to male Sprague Dawley rats or male and female Cynomolgus monkeys intravenously or via oral gavage. For intravenous (IV) dosing, test compounds were dosed at 0.5 to 1 mg/kg using a formulation of 10% dimethylacetamide (DMAC) in acidified saline via IV bolus for rat and 5 min or 10 min IV infusion for monkey. For oral (PO) dosing, test compounds were dosed at 1.0 to 3.0 mg/kg using 5% DMAC in 0.5% methylcellulose in citrate buffer (pH 3.5). Blood samples were collected at predose and various time points up to 24 hours postdose. All blood samples were collected using EDTA as the anticoagulant and centrifuged to obtain plasma samples. The plasma concentrations of test compounds were determined by LC-MS methods. The measured plasma concentrations were used to calculate PK parameters by standard noncompartmental methods using Phoenix® WinNonlin software program (version 7.0, Pharsight Corporation).
(§2) In rats and monkeys, cassette dosing of test compounds were conducted to obtain preliminary PK parameters.

[2] = In vivo pharmacokinetics in monkeys; details: cynomolgus monkey, cassette dosing; for clearance / half-life / Vd / AUC(0-inf) / Cmax: both sexes, plasma; for clearance / half-life / Vd: 1.0 mg/kg IV; for Vd: read-out: Vss; for AUC(0-inf) / Cmax / F: 3.0 mg/kg PO
Description: as §1, §2

SMILES: Cc1c(Nc2nc(C(F)F)nc3cc(CN4CC[C@@H](O)C4)cnc23)cccc1-c1cccc(NC(=O)c2nc3c(n2C)CCN(CCC24CCC(C(=O)O)(CC2)C4)C3)c1Cl [Example 1, (R)-4-(2-(2-((2-chloro-3′-((2-(difluoromethyl)-7-((3-hydroxypyrrolidin-1-yl)methyl)pyrido[3,2-d]pyrimidin-4-yl)amino)-2′-methyl-[1,1′-biphenyl]-3-yl)carbamoyl)-1-methyl-1,4,6,7-tetrahydro-5H-imidazo[4,5-c]pyridin-5-yl)ethyl)bicyclo[2.2.1]heptane-1-carboxylic Acid]
- clearance [1]: 6.15 mL/min/kg
- half-life [1]: 4.4 h
- Vd [1]: 1.75 L/kg
- Cmax [1]: 166 nM
- AUC(0-inf) [1]: 1.4 µM·h
- F [1]: 14%
- clearance [2]: 4.25 mL/min/kg
- half-life [2]: 6.35 h
- Vd [2]: 1.01 L/kg
- AUC(0-inf) [2]: 8.24 µM·h
- Cmax [2]: 794 nM
- F [2]: 59%

SMILES: Cc1c(Nc2nc(C(F)F)nc3cc(CN4CC[C@@](C)(O)C4)cnc23)cccc1-c1cccc(NC(=O)c2nc3c(n2C)CCN(CCC24CCC(C(=O)O)(CC2)C4)C3)c1Cl [Example 2, (R)-4-(2-(2-((2-chloro-3′-((2-(difluoromethyl)-7-((3-hydroxy-3-methylpyrrolidin-1-yl)methyl)pyrido[3,2-d]pyrimidin-4-yl)amino)-2′-methyl-[1,1′-biphenyl]-3-yl)carbamoyl)-1-methyl-1,4,6,7-tetrahydro-5H-imidazo[4,5-c]pyridin-5-yl)ethyl)bicyclo[2.2.1]heptane-1-carboxylic Acid]
- clearance [1]: 7.85 mL/min/kg
- half-life [1]: 4.4 h
- Vd [1]: 2.63 L/kg
- Cmax [1]: 111 nM
- AUC(0-inf) [1]: 1.07 µM·h
- F [1]: 14%
- clearance [2]: 4.78 mL/min/kg
- half-life [2]: 6.23 h
- Vd [2]: 1.36 L/kg
- AUC(0-inf) [2]: 6.84 µM·h
- Cmax [2]: 579 nM
- F [2]: 57%

SMILES: Cc1c(NC(=O)c2nc3c(n2C)CCN(CCC24CCC(C(=O)O)(CC2)C4)C3)cccc1-c1cccc(Nc2nc(C(F)F)nc3cc(CN4CC[C@@H](O)C4)cnc23)c1C [Example 5, (R)-4-(2-(2-((3′-((2-(difluoromethyl)-7-((3-hydroxypyrrolidin-1-yl)methyl)pyrido[3,2-d]pyrimidin-4-yl)amino)-2,2′-dimethyl-[1,1′-biphenyl]-3-yl)carbamoyl)-1-methyl-1,4,6,7-tetrahydro-5H-imidazo[4,5-c]pyridin-5-yl)ethyl)bicyclo[2.2.1]heptane-1-carboxylic Acid]
- clearance [1]: 6.93 mL/min/kg
- half-life [1]: 3.9 h
- Vd [1]: 1.63 L/kg
- Cmax [1]: 241 nM
- AUC(0-inf) [1]: 1.65 µM·h
- F [1]: 19%
- clearance [2]: 4.93 mL/min/kg
- half-life [2]: 8.48 h
- Vd [2]: 1.14 L/kg
- AUC(0-inf) [2]: 11.1 µM·h
- Cmax [2]: 1300 nM
- F [2]: 89%
